Measured values reported in US8232278B2 (Gilead Sciences, Inc., priority 2005, dated 2012).
Read-outs that look alike come from different tables or passages of the source.

Legend:
HCV replicon = test: Anti-HCV assay / replicon assay (EC50, luciferase read-out); format: cell-based, hepatitis C virus (HCV); settings: for CC50/EC50: CC50/EC50 ratio (selectivity index)
How it was run: (§1)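 Huh-7 cells carrying an HCV replicon, 6000 per well, were exposed to 3-fold serial compound dilutions (0.5% DMSO final where DMSO was used) for 3 days at 37 °C. EC50 was read by luciferase after cell lysis; CC50 was taken as 50% inhibition of cell growth.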

Huh-7 HCV replicon cells = test: CC50 assay in Huh-7 HCV replicon cells (CellTiter-Glo); format: cell-based, human; settings: 3 days, 50% cytostatic concentration
How it was run: as §1

[1] = system: wild-type HIV-1 strain IIIB; test: HIV-1 assay (XTT, HIV-induced cytopathic effect in MT-2 cells); format: cell-based; settings: for inhibition at 5 µM: read-out: MT2 HIV % inhib. @ 5 μM
Experimental: This assay is based on the quantification of the HIV-induced cytopathic effect by a calorimetric detection of the viability of virus-infected cells in the presence or absence of tested inhibitors. The HIV-induced cell death was determined by using as a metabolic substrate 2,3-bis(2-methoxy-4-nitro-5-sulfophenyl)-2H-tetrazolium-5-carboxanilide (hereinafter referred as XTT) which was converted only by live cells into a product with specific absorption characteristics, as described by Weislow et al., J. Natl. Cancer Inst. (1989) 81:577.
The assay protocol for the determination of EC50 includes the following steps: • 1. MT-2 cells were maintained in RPMI-1640 medium supplemented with 10% fetal bovine serum, glutamine and antibiotics. • 2. Cells were infected by the wild-type HIV-1 strain IIIB (ABI, Columbia, Md.) for 3 hours at 37° C. using a multiplicity of infection (MOI) of 0.01. • 3. Prepare a set of solutions containing various concentrations of the tested inhibitor by making 5-fold serial dilutions in 96-well plate (100 μl/well). Alternatively, test single drug concentration (100 μl/well). Distribute the infected cells into the 96-well plate containing the inhibitors (20,000 cells in 100 μl/well). Include the following control samples, untreated infected cells (100% cell death) and control drug-treated infected cells (full protection). • 4. Incubate the cells for 5 days at 37° C. • 5. Prepare XTT solution (6 mL per assay plate) at a concentration of 2 mg/mL in a phosphate-buffered saline at pH 7.4. Heat the solution in water-bath for 10 minutes at 56° C. Add 50 μl of N-methylphenazonium methasulfate (5 μg/mL) per 6 mL of XTT solution. • 6. Remove 100 μl media from each well on the assay plate. • 7. Add 100 μl of the XTT substrate solution per well and incubate at 37° C. for 45 to 60 minutes in a CO2 incubator. • 8. Add 20 μl of 2% Triton X-100 per well to inactivate the virus. • 9. Read the absorbance at 450 nm with subtracting off the background absorbance at 650 nm. • 10. Plot the percentage absorbance relative to untreated control and estimate the EC50 value as drug concentration resulting in a 50% protection of the infected cells. Alternatively, calculate the percentage of inhibition for a fixed concentration, relative to the full protection with the control drug.
This assay has been performed on a set of compounds of the invention, and results are reported in table 8 below, also indicating the nature of substituents being present in positions 4 and 6 of the pyrido[3,2-d]pyrimidine derivatives of the invention (all being amino-substituted in position 2).

[2] = CC50 assay in Huh-7 HCV replicon cells (CellTiter-Glo); format: cell-based, human; settings: human, 50% cytostatic concentration
How it was run: as §1

[3] = Human immunodeficiency virus 1, MT2, 120 h, 5 μM, MT-2 cells infected with HIV-1 IIIB, 5 days, XTT
[4] = Hepatitis C virus, 72 h, human hepatoma Huh-7 cell line harbouring a HCV replicon, 3 days, luciferase luminescence, read-out: EC50

Row | Molecule | CC50/EC50 (HCV replicon) | inhibition at 5 µM [1, 3] [%] | CC50 at 3 days [2] [nM] | EC50 (HCV replicon; [4]) [nM] | also measured
1 | 6-(3,4-difluoro-phenyl)-4-ethoxy-pyrido[3,2-d]pyrimidin-2-ylamine [Example 460] | 145 |  |  |  | EC50 (HCV replicon; human hepatoma Huh-7 cell line harbouring a HCV replicon, 3 days, luciferase luminescence, read-out: EC50): 113 nM; CC50 (Huh-7 HCV replicon cells): 16300 nM; MT2 HIV % inhib. @ 5 μM ([1]; 5 μM, MT-2 cells infected with HIV-1 IIIB, 5 days, XTT): 11%
2 | COc1ccc(-c2ccc3nc(N)nc(N4CCN(C)CC4)c3n2)cc1OC [Example 36, 2-amino-4-(N-methyl-piperazino)-6-(3,4-dimethoxyphenyl)-pyrido[3,2-d]pyrimidine] |  | 3 |  |  | 
3 | Nc1nc(OCc2ccccc2)c2nc(-c3cccc(F)c3)ccc2n1 [Example 210, 2-amino-4-benzyloxy-6-(m-fluorophenyl)-pyrido[3,2-d]pyrimidine] | 85 |  | 18800 |  | EC50 (HCV replicon; Hepatitis C virus, Huh-7, 72 h): 220 nM; inhibition at 5 µM ([1]; Human immunodeficiency virus 1, IIIB, MT2, 120 h): 5%
4 | Nc1nc(OCc2ccccc2)c2nc(-c3ccc(F)cc3)ccc2n1 [Example 211, 2-amino-4-benzyloxy-6-(p-fluorophenyl)-pyrido[3,2-d]pyrimidine] | 179 | 17 | 37500 | 210 | 
5 | Nc1nc(N2CCOCC2)c2nc(-c3ccncc3)ccc2n1 [Example 226, 2-amino-4-morpholino-6-(4-pyridinyl)-pyrido[3,2-d]pyrimidine] |  | 9 |  |  | 
6 | CCOc1nc(N)nc2ccc(-c3ccc(F)cc3)nc12 [Example 281, 2-amino-4-ethoxy-6-(p-fluorophenyl)pyrido[3,2-d]-pyrimidine] | 856 | 17 |  | 59 | CC50 (Huh-7 HCV replicon cells): 50100 nM
7 | CC(C)Oc1nc(N)nc2ccc(-c3ccc(F)cc3)nc12 [Example 286, 2-amino-4-isopropoxy-6-(p-fluorophenyl)-pyrido[3,2-d]pyrimidine] | 1113 | 11 |  | 45 | CC50 (Huh-7 HCV replicon cells): 50100 nM
8 | CCOCCOc1nc(N)nc2ccc(-c3ccccc3F)nc12 [Example 302, 2-amino-4-(2-ethoxyethoxy)-6-(2-fluorophenyl)-pyrido[3,2-d]pyrimidine] |  |  |  |  | melting point: 163 °C
9 | CCOCCOc1nc(N)nc2ccc(-c3cccc(F)c3)nc12 [Example 303, 2-amino-4-(2-ethoxyethoxy)-6-(3-fluorophenyl)-pyrido[3,2-d]pyrimidine] | 89 | 8 |  | 560 | CC50 (Huh-7 HCV replicon cells): 50100 nM; melting point: 165 °C
10 | COCCOc1nc(N)nc2ccc(-c3ccc(F)cc3)nc12 [Example 305, 2-amino-4-(2-methoxyethoxy)-6-(4-fluorophenyl)-pyrido[3,2-d]pyrimidine] | 2863 |  |  | 18 | CC50 (Huh-7 HCV replicon cells): 50100 nM; melting point: 204 °C
11 | CC(=O)N1CCN(c2nc(N)nc3ccc(-c4ccc(F)cc4)nc23)CC1 [Example 320, 2-amino-4-(N-acetylpiperazino)-6-(4-fluorophenyl)-pyrido[3,2-d]pyrimidine] | 87 | 12 | 19900 | 230 | 
12 | CC(=O)Nc1ccc(-c2ccc3nc(N)nc(N4CCN(C(C)=O)CC4)c3n2)cc1 [Example 340, 2-amino-4-(N-acetylpiperazino)-6-(p-acetamidophenyl)-pyrido(3,2-d)pyrimidine] |  | 4 |  |  | 
13 | CCOc1nc(N)nc2ccc(-c3ccc(NC(C)=O)cc3)nc12 [Example 353, 2-amino-4-ethoxy-6-(p-acetamidophenyl)pyrido(3,2-d)pyrimidine] | 56 | 4 | 25100 | 450 | 
14 | Cc1cccc(OCC(=O)N2CCN(c3nc(N)nc4ccc(-c5ccc(F)cc5)nc34)CC2)c1 [Example 370, 2-amino-4-[4-(3-methylphenoxy-acetyl)piperazin-1-yl]-6-(4-fluorophenyl)-pyrido[3,2-d]pyrimidine] | 65 |  | 3400 | 52 | 
15 | Nc1nc(N2CCN(C(=O)COc3cccc(Cl)c3)CC2)c2nc(-c3ccc(F)cc3)ccc2n1 [Example 371, 2-amino-4-[4-(3-chlorophenoxy-acetyl)piperazin-1-yl]-6-(4-fluorophenyl)-pyrido[3,2-d]pyrimidine] | 837 |  | 25100 | 30 | 
16 | Nc1nc(N2CCN(C(=O)COc3ccc(Cl)cc3Cl)CC2)c2nc(-c3ccc(F)cc3)ccc2n1 [Example 372, 2-amino-4-[4-(2,4-dichlorophenoxy-acetyl)piperazin-1-yl]-6-(4-fluorophenyl)-pyrido[3,2-d]pyrimidine] | 78 |  | 25100 | 320 | 
17 | Nc1nc(N2CCN(C(=O)COc3ccc(F)cc3)CC2)c2nc(-c3ccc(F)cc3)ccc2n1 [Example 373, 2-amino-4-[4-(4-fluorophenoxy-acetyl)piperazin-1-yl]-6-(4-fluorophenyl)-pyrido[3,2-d]pyrimidine] | 148 |  | 19200 | 130 | 
18 | COCCSc1nc(N)nc2ccc(-c3ccc(F)cc3)nc12 [Example 395] | 278 |  | 13600 |  | EC50 (HCV replicon; Hepatitis C virus, Huh-7, 72 h): 49 nM
19 | COCCNc1nc(NC(C)=O)nc2ccc(-c3ccc(F)cc3)nc12 [Example 398, 2-acetamido-4-(2-methoxy-ethylamino)-6-(4-fluorophenyl)pyrido[3,2-d]pyrimidine] | 61 |  | 25100 | 410 | 
20 | CCNc1nc(N)nc2ccc(-c3ccc(F)cc3)nc12 [Example 402, 2-amino-4-ethylamino-6-(4-fluorophenyl)pyrido[3,2-d]pyrimidine] | 80 |  | 30000 | 376 | 
21 | Nc1nc(OCCF)c2nc(-c3ccc(F)cc3)ccc2n1 [Example 417, 2-amino-4-(2-fluoro-ethoxy)-6-(4-fluorophenyl)pyrido[3,2-d]pyrimidine] | 2282 |  | 25100 | 11 | 
22 | COCCOc1nc(N)nc2ccc(-c3ccc(OC)c(OC)c3)nc12 [Example 471, 6-(3,4-dimethoxy-phenyl)-4-(2-methoxy-ethoxy)-pyrido[3,2-d]pyrimidin-2-ylamine] | 66 |  | 25100 |  | EC50 (HCV replicon; Hepatitis C virus, Huh-7, 72 h): 380 nM
23 | CC(=O)Nc1ccc(-c2ccc3nc(N)nc(N4CCOCC4)c3n2)cc1 [Example 500, N-[4-(2-amino-4-morpholin-4-yl-pyrido[3,2-d]pyrimidin-6-yl)-phenyl]-acetamide] | 735 |  | 36000 | 49 | 
24 | CC(C)C(=O)Nc1ccc(-c2ccc3nc(N)nc(N4CCOCC4)c3n2)cc1 [Example 501, N-[4-(2-amino-4-morpholin-4-yl-pyrido[3,2-d]pyrimidin-6-yl)-phenyl]-isobutyramide] | 149 |  | 7300 | 49 | 
25 | Nc1ccc(-c2ccc3nc(N)nc(N4CCOCC4)c3n2)cc1 [Example 502, 6-(4-amino-phenyl)-4-morpholin-4-yl-pyrido[3,2-d]pyrimidin-2-ylamine] | 82 |  | 8100 |  | EC50 (HCV replicon; Hepatitis C virus, Huh-7, 72 h): 99 nM
26 | COc1nc(N)nc2ccc(-c3ccc(F)cc3)nc12 [Example 504, 6-(4-fluoro-phenyl)-4-methoxy-pyrido[3,2-d]pyrimidin-2-ylamine] | 434 |  | 14300 | 33 | 
27 | CCOc1nc(N)nc2ccc(-c3ccc(OC)nc3)nc12 [Example 546] | 68 |  | 25100 | 370 | 
28 | CCOc1cccc(-c2ccc3nc(N)nc(OCC)c3n2)c1 [Example 549] | 53 |  | 25100 | 470 | 
